# Assay results published in PubChem BioAssay AID1963853 (Molecular Pharmacology Branch, DTP, NCI, 2024).
# System: 266295-075-R-J1-PDC spheroid viability
# Test: Anticancer human tumor 266295-075-R-J1-PDC patient-derived head and neck squamous carcinoma cell line growth inhibition [POLQ]
# Settings: spheroids with HUVEC and MSC; for IC50: curve of first compound; for viability, T/C: stronger effect = lower value
# In short: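 Growth inhibition in 3D: complex spheroids (tumor PDC, HUVEC, MSC) treated with POLQ inhibitor combinations; where Cmax unknown, highest tested concentration 10 microM, except SN-38 at 1 microM.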
# [1] = second compound 0.0316 µM, first compound 0.00316 µM
# [2] = second compound 0.0316 µM, first compound 0.01 µM
# [3] = second compound 0.0316 µM, first compound 0.0316 µM
# [4] = second compound 0.0316 µM, first compound 0.1 µM
# [5] = second compound 0.0316 µM, first compound 0.316 µM
# [6] = second compound 0.0316 µM, first compound 1 µM
# [7] = second compound 0.1 µM, first compound 0.00316 µM
# [8] = second compound 0.1 µM, first compound 0.01 µM
# [9] = second compound 0.1 µM, first compound 0.0316 µM
# [10] = second compound 0.1 µM, first compound 0.1 µM
# [11] = second compound 0.1 µM, first compound 0.316 µM
# [12] = second compound 0.1 µM, first compound 1 µM
# [13] = second compound 0.316 µM, first compound 0.00316 µM
# [14] = second compound 0.316 µM, first compound 0.01 µM
# [15] = second compound 0.316 µM, first compound 0.0316 µM
# [16] = second compound 0.316 µM, first compound 0.1 µM
# [17] = second compound 0.316 µM, first compound 0.316 µM
# [18] = second compound 0.316 µM, first compound 1 µM
# [19] = second compound 1 µM, first compound 0.00316 µM
# [20] = second compound 1 µM, first compound 0.01 µM
# [21] = second compound 1 µM, first compound 0.0316 µM
# [22] = second compound 1 µM, first compound 0.1 µM
# [23] = second compound 1 µM, first compound 0.316 µM
# [24] = second compound 1 µM, first compound 1 µM
# [25] = second compound 3.16 µM, first compound 0.00316 µM
# [26] = second compound 3.16 µM, first compound 0.01 µM
# [27] = second compound 3.16 µM, first compound 0.0316 µM
# [28] = second compound 3.16 µM, first compound 0.1 µM
# [29] = second compound 3.16 µM, first compound 0.316 µM
# [30] = second compound 3.16 µM, first compound 1 µM
# [31] = second compound 10 µM, first compound 0.00316 µM
# [32] = second compound 10 µM, first compound 0.01 µM
# [33] = second compound 10 µM, first compound 0.0316 µM
# [34] = second compound 10 µM, first compound 0.1 µM
# [35] = second compound 10 µM, first compound 0.316 µM
# [36] = second compound 10 µM, first compound 1 µM
# 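Note: spheroids exposed to compounds for seven days before readout.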
compound,measurement,setting,value
COc1cccc(OCCCN)c1-c1cc(Nc2cnc(C#N)cn2)n[nH]1 + Nc1ccc(C#CCN(C(=O)Cc2ncc(C(F)(F)F)cc2C(F)(F)F)c2ccc(F)cc2)nn1,IC50,second compound 0.0316 µM,> 1 µM
same,IC50,second compound 0.1 µM,> 1 µM
same,IC50,second compound 0.316 µM,> 1 µM
same,IC50,second compound 1 µM,> 1 µM
same,IC50,second compound 3.16 µM,> 1 µM
same,IC50,second compound 10 µM,> 1 µM
same,"viability, T/C",[1],89.6%
same,"viability, T/C",[2],110%
same,"viability, T/C",[3],81.2%
same,"viability, T/C",[4],77.5%
same,"viability, T/C",[5],64.5%
same,"viability, T/C",[6],64.4%
same,"viability, T/C",[7],91.6%
same,"viability, T/C",[8],106%
same,"viability, T/C",[9],84.1%
same,"viability, T/C",[10],69.3%
same,"viability, T/C",[11],72%
same,"viability, T/C",[12],73.5%
same,"viability, T/C",[13],106%
same,"viability, T/C",[14],91.9%
same,"viability, T/C",[15],73.8%
same,"viability, T/C",[16],76.1%
same,"viability, T/C",[17],60.4%
same,"viability, T/C",[18],71.2%
same,"viability, T/C",[19],99.2%
same,"viability, T/C",[20],95.9%
same,"viability, T/C",[21],74.5%
same,"viability, T/C",[22],66.5%
same,"viability, T/C",[23],61.9%
same,"viability, T/C",[24],60.8%
same,"viability, T/C",[25],120%
same,"viability, T/C",[26],101%
same,"viability, T/C",[27],73.2%
same,"viability, T/C",[28],72.8%
same,"viability, T/C",[29],70.2%
same,"viability, T/C",[30],61%
same,"viability, T/C",[31],94.6%
same,"viability, T/C",[32],95%
same,"viability, T/C",[33],87.8%
same,"viability, T/C",[34],67.3%
same,"viability, T/C",[35],62.1%
same,"viability, T/C",[36],68.9%
CCc1cc2c(N3CCc4c(cc(Cn5ccnc5)cc4-c4cn(C)nc4C(F)(F)F)C3=O)ccnc2c(OC)n1 + Nc1ccc(C#CCN(C(=O)Cc2ncc(C(F)(F)F)cc2C(F)(F)F)c2ccc(F)cc2)nn1,IC50,second compound 0.0316 µM,> 10 µM
same,IC50,second compound 0.1 µM,> 10 µM
same,IC50,second compound 0.316 µM,> 10 µM
same,IC50,second compound 1 µM,> 10 µM
same,IC50,second compound 3.16 µM,> 10 µM
same,IC50,second compound 10 µM,> 10 µM
same,"viability, T/C",[3],92.7%
same,"viability, T/C",[4],102%
same,"viability, T/C",[5],105%
same,"viability, T/C",[6],141%
same,"viability, T/C","second compound 0.0316 µM, first compound 3.16 µM",183%
same,"viability, T/C","second compound 0.0316 µM, first compound 10 µM",159%
same,"viability, T/C",[9],100%
same,"viability, T/C",[10],110%
same,"viability, T/C",[11],91.7%
same,"viability, T/C",[12],135%
same,"viability, T/C","second compound 0.1 µM, first compound 3.16 µM",127%
same,"viability, T/C","second compound 0.1 µM, first compound 10 µM",132%
same,"viability, T/C",[15],116%
same,"viability, T/C",[16],120%
same,"viability, T/C",[17],110%
same,"viability, T/C",[18],138%
same,"viability, T/C","second compound 0.316 µM, first compound 3.16 µM",148%
same,"viability, T/C","second compound 0.316 µM, first compound 10 µM",127%
same,"viability, T/C",[21],109%
same,"viability, T/C",[22],117%
same,"viability, T/C",[23],97.5%
same,"viability, T/C",[24],114%
same,"viability, T/C","second compound 1 µM, first compound 3.16 µM",134%
same,"viability, T/C","second compound 1 µM, first compound 10 µM",115%
same,"viability, T/C",[27],99.8%
same,"viability, T/C",[28],103%
same,"viability, T/C",[29],122%
same,"viability, T/C",[30],102%
same,"viability, T/C","second compound 3.16 µM, first compound 3.16 µM",110%
same,"viability, T/C","second compound 3.16 µM, first compound 10 µM",130%
same,"viability, T/C",[33],103%
same,"viability, T/C",[34],97.7%
same,"viability, T/C",[35],118%
same,"viability, T/C",[36],115%
same,"viability, T/C","second compound 10 µM, first compound 3.16 µM",133%
same,"viability, T/C","second compound 10 µM, first compound 10 µM",121%
COc1cccc(OCCCN)c1-c1cc(Nc2cnc(C#N)cn2)n[nH]1 + Cc1cccc(N(C)C(=O)C2C(O)CCN2c2nc(C)cc(C(F)(F)F)c2C#N)c1,IC50,second compound 0.0316 µM,> 1 µM
same,IC50,second compound 0.1 µM,> 1 µM
same,IC50,second compound 0.316 µM,> 1 µM
same,IC50,second compound 1 µM,0.985 µM
same,IC50,second compound 3.16 µM,> 1 µM
same,IC50,second compound 10 µM,> 1 µM
same,"viability, T/C",[1],128%
same,"viability, T/C",[2],127%
same,"viability, T/C",[3],87.2%
same,"viability, T/C",[4],80%
same,"viability, T/C",[5],81.7%
same,"viability, T/C",[6],72%
same,"viability, T/C",[7],101%
same,"viability, T/C",[8],101%
same,"viability, T/C",[9],83.3%
same,"viability, T/C",[10],76.3%
same,"viability, T/C",[11],79.1%
same,"viability, T/C",[12],62%
same,"viability, T/C",[13],109%
same,"viability, T/C",[14],90.7%
same,"viability, T/C",[15],68%
same,"viability, T/C",[16],71.1%
same,"viability, T/C",[17],72.1%
same,"viability, T/C",[18],63.9%
same,"viability, T/C",[19],127%
same,"viability, T/C",[20],85.5%
same,"viability, T/C",[21],89.8%
same,"viability, T/C",[22],75.1%
same,"viability, T/C",[23],66.7%
same,"viability, T/C",[24],50.1%
same,"viability, T/C",[25],106%
same,"viability, T/C",[26],101%
same,"viability, T/C",[27],77.7%
same,"viability, T/C",[28],77.7%
same,"viability, T/C",[29],75.2%
same,"viability, T/C",[30],64.8%
same,"viability, T/C",[31],107%
same,"viability, T/C",[32],108%
same,"viability, T/C",[33],81.5%
same,"viability, T/C",[34],74.3%
same,"viability, T/C",[35],58.5%
same,"viability, T/C",[36],75.3%
